“Also recorded” adds a separate entry of the source.
Tests used:
[1] = target: T1, GPIIb/IIIa (Homo sapiens, UniProt P05106+P08514); assay: In vitro solid phase purified glycoprotein IIb/IIIa binding assay (biotinylated fibrinogen); conditions: Table I
T1 sequence (P08514 32-887 limits assumed): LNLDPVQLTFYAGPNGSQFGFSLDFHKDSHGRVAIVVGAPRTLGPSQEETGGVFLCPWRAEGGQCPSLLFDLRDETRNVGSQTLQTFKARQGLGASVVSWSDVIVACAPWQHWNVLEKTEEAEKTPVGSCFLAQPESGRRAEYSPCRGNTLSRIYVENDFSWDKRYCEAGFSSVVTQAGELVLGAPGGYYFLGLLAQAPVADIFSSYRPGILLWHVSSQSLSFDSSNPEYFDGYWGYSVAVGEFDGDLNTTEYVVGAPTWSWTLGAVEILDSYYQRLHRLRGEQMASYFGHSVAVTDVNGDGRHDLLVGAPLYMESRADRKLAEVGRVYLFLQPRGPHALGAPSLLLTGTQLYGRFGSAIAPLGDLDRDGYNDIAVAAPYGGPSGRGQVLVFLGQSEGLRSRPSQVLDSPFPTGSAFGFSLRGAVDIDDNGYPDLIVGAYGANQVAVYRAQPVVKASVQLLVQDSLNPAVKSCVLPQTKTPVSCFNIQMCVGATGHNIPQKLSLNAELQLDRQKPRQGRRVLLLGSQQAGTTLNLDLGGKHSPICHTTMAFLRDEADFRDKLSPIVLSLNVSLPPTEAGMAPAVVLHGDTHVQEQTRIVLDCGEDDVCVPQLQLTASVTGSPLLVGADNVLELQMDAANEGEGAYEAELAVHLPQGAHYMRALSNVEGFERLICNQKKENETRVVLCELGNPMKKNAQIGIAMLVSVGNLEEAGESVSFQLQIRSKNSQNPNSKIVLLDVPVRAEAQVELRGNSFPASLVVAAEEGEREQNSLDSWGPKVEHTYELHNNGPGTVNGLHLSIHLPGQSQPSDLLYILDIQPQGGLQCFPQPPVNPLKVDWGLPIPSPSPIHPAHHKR
T1 sequence (P05106 27-788): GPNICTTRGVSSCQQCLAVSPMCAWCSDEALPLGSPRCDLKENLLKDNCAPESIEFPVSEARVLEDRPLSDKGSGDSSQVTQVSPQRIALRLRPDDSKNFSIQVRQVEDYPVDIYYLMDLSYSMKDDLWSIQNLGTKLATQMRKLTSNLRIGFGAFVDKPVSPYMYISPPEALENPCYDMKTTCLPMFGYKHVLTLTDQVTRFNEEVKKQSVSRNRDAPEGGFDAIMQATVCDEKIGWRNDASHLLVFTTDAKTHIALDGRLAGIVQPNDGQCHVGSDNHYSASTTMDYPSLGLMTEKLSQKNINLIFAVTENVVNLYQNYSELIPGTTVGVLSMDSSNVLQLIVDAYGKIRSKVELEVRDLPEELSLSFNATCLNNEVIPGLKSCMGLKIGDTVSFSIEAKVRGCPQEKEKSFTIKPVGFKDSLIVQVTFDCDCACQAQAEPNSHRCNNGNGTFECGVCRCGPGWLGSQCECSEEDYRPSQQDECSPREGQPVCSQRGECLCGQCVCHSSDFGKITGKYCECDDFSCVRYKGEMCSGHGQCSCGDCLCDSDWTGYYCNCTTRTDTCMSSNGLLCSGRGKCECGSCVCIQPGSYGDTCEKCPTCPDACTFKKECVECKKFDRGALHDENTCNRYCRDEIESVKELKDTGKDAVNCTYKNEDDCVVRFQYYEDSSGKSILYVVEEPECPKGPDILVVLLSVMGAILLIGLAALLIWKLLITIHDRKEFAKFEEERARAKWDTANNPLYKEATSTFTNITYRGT
Description: The compounds of the present invention interrupt binding of fibrinogen to platelet glycoprotein IIb/IIIa (GPIIb/IIIa) and thereby inhibit platelet aggregation. […] Because the final, common pathway in normal platelet aggregation is the binding of fibrinogen to activated, exposed GPIIb/IIIa, inhibition of this binding represents a plausible antithrombotic approach. The receptor is activated by stimuli such as ADP, collagen, and thrombin, exposing binding domains to two different peptide regions of fibrinogen: α-chain Arg-Gly-Asp (RGD) and γ-chain 400-411.
IN VITRO SOLID PHASE PURIFIED GLYCOPROTEIN IIB/IIIA BINDING ASSAY.
The plate is covered and incubated overnight at 4° C. The GPIIb/IIa solution is discarded and 150 μl of 5% BSA is added and incubated at RT for 1-3 h. The plate is washed extensively with modified Tyrodes buffer. Biotinylated fibrinogen (25 μl/well) at 2× final concentration is added to the wells that contain the test compounds (25 μl/well) at 2× final concentration. The plate is covered and incubated at RT for 2-4 h. Twenty minutes prior to incubation completion, one drop of Reagent A (Vecta Stain ABC Horse Radish Peroxidase kit, Vector Laboratories, Inc.) and one drop Reagent B are added with mixing to 5 mL modified Tyrodes buffer mix and let stand. The ligand solution is discarded and the plate washed (5×200 μl/well) with modified Tyrodes buffer. Vecta Stain HRP-Biotin-Avidin reagent (50 μl/well, as prepared above) is added and incubated at RT for 15 min. The Vecta Stain solution is discarded and the wells washed (5×200 μl/well) with modified Tyrodes buffer. […] The absorbance is read at 490 nm.

[2] = tested on: gel-filtered platelets; assay: In vitro inhibition of thrombin-induced gel-filtered platelet aggregation assay; type: cell-based; conditions: *Indicates IC50, read-out: Pl. Aggr. IC50
Protocol: IN VITRO INHIBITION OF THROMBIN-INDUCED GEL-FILTERED PLATELET AGGREGATION ASSAY.
The percentage of platelet aggregation is calculated as an increase in light transmission of compound treated platelet concentrate vs. control treated platelet concentrate. Blood is obtained from drug free, normal donors into tubes containing 0.13M sodium citrate. Platelet rich plasma (PRP) is collected by centrifugation of whole blood at 200×g for 10 min at 25° C. The PRP (5 mL) is gel filtered through Sepharose 2B (bed volume 50 mL), and the platelet count is adjusted to 2×10^7platelets per sample. The following constituents are added to a siliconized cuvette: concentrated platelet filtrate and Tyrode's buffer (0.1 4M NaCl, 0.0027M KCl, 0.01 2M NaHCO3, 0.76 mM Na2 HPO4, 0.0055M glucose, 2 mg/mL BSA and 5.0 mM HEPES @ pH 7.4) in an amount equal to 350 μl, 50 μl of 20 mM calcium and 50 μl of the test compound. Aggregation is monitored in a BIODATA aggregometerforthe 3 min following the addition of agonist (thrombin 50 μl of 1 unit/mL).

[3] = tested on: platelet aggregation; assay: Ex vivo dog study: platelet aggregation and ATP release in whole blood and PRP; set-up: species or system mongrel dogs
Protocol: Adult mongrel dogs (8-13 kg) were anesthetized with sodium pentobarbital (35 mg/kg, i.v.) and artificially respired. Arterial blood pressure and heart rate were measured using a Millar catheter-tip pressure transducer inserted in a femoral artery. Another Millar transducer was placed in the left ventricle (LV) via a carotid artery to measure LV end diastolic pressure and indices of myocardial contractility. A lead II electrocardiogram was recorded from limb electrodes. Catheters were placed in a femoral artery and vein to sample blood and infuse drugs, respectively. Responses were continuously monitored using a Modular Instruments data aquisition system.
(§1) Arterial blood samples (5-9 ml) were withdrawn into tubes containing 3.8% sodium citrate to prepare platelet rich plasma (PRP) and to determine effects on coagulation parameters: prothrombin time (PT) and activated partial thromboplastin time (APTT). Separate blood samples (1.5 ml) were withdrawn in EDTA to determine hematocrit and cell counts (platelets, RBC's and white cells). Template bleeding times were obtained from the buccal surface using a symplate incision devise and Whatman filter paper.
(§2) Aggregation of PRP was performed using a BioData aggregometer. Aggregation of whole blood used a Chronolog impedance aggregometer. PT and APTT were determined on either a BioData or ACL 3000+ coagulation analyser. Cells were counted with a Sysmex K-1000.
(§3) Compound 17 was solubilized in a small volume of dimethylformamide (DMF) and diluted with saline to a final concentration of 10% DMF. Compound 17 was administered by the intravenous route with a Harvard infusion pump. Doses of 0.3, 1, 3, and 10 mg/kg were given in a cumulative fashion to each animal. Each dose was administered over a 15 min interval at a constant rate of 0.33 ml/min. Data were obtained after each dose and 30 and 60 min following the end of drug administration.

[4] = set-up: species or system mongrel dogs; conditions: dog, in vivo, iv
Protocol: as §1, §2, §3

Structure (SMILES)	IC50 [1] [nM]	IC50 [2] [nM]	platelet function began to recover ([3]; PRP and whole blood, post treatment) [min]	Gamma thrombin induced aggregation of PRP ([3]; PRP, doses of 3.0 mg/kg and above, iv)	collagen stimulated platelet aggregation, PRP ([3]; PRP, marked activity at 0.3 mg/kg iv)	duration of drug action / antiaggregatory effect ([3]; iv)	ex vivo platelet aggregation responses ([3]; iv, 0.3-10 mg/kg cumulative)	collagen stimulated platelet ATP release ([3]; whole blood, 10 mg/kg iv)	collagen-stimulated aggregation, whole blood ([3]; whole blood, doses of 0.3-10 mg/kg iv)	bleeding time at the higher doses [4]	coagulation (PT or APTT) [4]	platelet, white and RBC counts [4]
NCCCCCC(=O)N1CCCC(C(=O)NCCC(=O)O)C1 (stereo not drawn) [Compound 5, N-(Nε- nocaroyl)-Nip-β-Ala-OH]	13	1600	–	–	–	–	–	–	–	–	–	–
O=C(O)CCNC(=O)C1CCCN(C(=O)CCC2CCNCC2)C1 (stereo not drawn) [Compound 17, N-[3-(4-Piperidinepropionyl)]-Nip-β-Ala-OH]	3	130	30 to 60	inhibited at doses of 3.0 mg/kg and above	marked activity at 0.3 mg/kg	relatively short duration of drug action	marked inhibition of ex vivo platelet aggregation responses; also recorded: broadly effective inhibitor of platelet aggregation ex vivo	marked inhibition	inhibited	increases in bleeding time at the higher doses	No effects on coagulation	unchanged at any dose

Source: patent US5770575A, “Nipecotic acid derivatives as antithrombotic compounds” (Ortho Pharmaceutical Corporation, priority 1995, dated 1998)
